For 11 compounds, IC50 results are on record in patent US9850283B2, “Macrocyclic inhibitors of the PD-1/PD-L1 and CD80(B7-1)/PD-L1 protein/protein interactions” (BRISTOL-MYERS SQUIBB COMPANY, priority 2013, dated 2017).

Molecules are shown by their SMILES. Positions of bridges follow the written chain, without caps; N, C: chain ends. Non-standard residues stand in square brackets, D forms with d. Residues, ends and D or L forms follow the SMILES beside them. ξ: configuration not given here. Pro(4,4-F2) = O=C(O)[C@@H]1CC(F)(F)CN1; Bta = N[C@@H](Cc1csc2ccccc12)C(=O)O; ξPro(4R-OH) = O=C(O)C1C[C@@H](O)CN1; Hyp = O=C(O)[C@@H]1C[C@@H](O)CN1; dNMeNle = CCCC[C@@H](NC)C(=O)O; NMeNle = CCCC[C@H](NC)C(=O)O; Pip = O=C(O)[C@@H]1CCCCN1; NMeA = CN[C@@H](C)C(=O)O; Orn = NCCC[C@H](N)C(=O)O; dDap = NC[C@@H](N)C(=O)O; Dab = NCC[C@H](N)C(=O)O; Dap = NC[C@H](N)C(=O)O; ξP = O=C(O)C1CCCN1

The target of one assay is T1, Human PD-L1/PD-1 (Homo sapiens, UniProt Q9NZQ7).
T1 construct: made in house; host or cells: HEK293T
The assay is described as follows: HTRF PD-1-Ig/PD-L1-His binding assay (human PD-L1). The note with it: cluster symbol; read-out: HTRF IC50 cluster. A digest of the protocol: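 Ig- and His-fused extracellular PD-1/PD-L1 binding in BSA/Tween-20 dPBS. HTRF with Eu anti-Ig (1 nM final) and APC anti-His (20 nM final).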
(In general: TR-FRET usually uses a lanthanide donor and a delayed reading to cut background.)

In assay [1] the target is T2, LK35.2-hPD-L1 cells / PE-labeled PD-1-Ig (Homo sapiens, UniProt Q9NZQ7).
T2 construct: expressed in transfected cells; host or cells: LK35.2 mouse B cell line
The assay is described as follows: LK35.2-hPD-L1 cell binding high-content screening assay. Type of assay: cell-based. The settings on record: cluster symbol; cell line of CBA not given (LK35.2-hPD-L1 or 293T-hPD-L1); read-out: CBA IC50 cluster. The gist of the method:
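Fluorescent PD-1-Ig binding to PD-L1-expressing LK35.2 cells, imaged after washing. Conditions: 1 nM PE-PD-1-Ig, 37 °C, 1 h, RPMI with 10% fetal calf serum.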

T1 sequence (Q9NZQ7 with tags, fused parts or gaps): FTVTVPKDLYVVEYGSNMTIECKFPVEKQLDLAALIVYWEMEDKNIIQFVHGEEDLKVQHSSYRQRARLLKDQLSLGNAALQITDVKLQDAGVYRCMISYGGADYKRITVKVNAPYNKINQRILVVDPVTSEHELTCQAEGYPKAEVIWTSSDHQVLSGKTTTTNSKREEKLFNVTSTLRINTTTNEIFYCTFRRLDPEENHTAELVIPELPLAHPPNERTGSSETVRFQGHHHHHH
T2 sequence (Q9NZQ7 19-290): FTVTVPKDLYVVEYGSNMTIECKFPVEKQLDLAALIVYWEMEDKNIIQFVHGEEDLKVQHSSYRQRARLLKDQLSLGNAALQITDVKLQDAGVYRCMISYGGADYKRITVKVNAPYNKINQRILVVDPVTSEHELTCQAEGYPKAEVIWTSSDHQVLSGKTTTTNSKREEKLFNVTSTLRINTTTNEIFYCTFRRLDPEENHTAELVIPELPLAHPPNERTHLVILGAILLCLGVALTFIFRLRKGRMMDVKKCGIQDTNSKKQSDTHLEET

One may read the IC50 as the concentration that gives 50% inhibition. Take `CCCC[C@H]1C(=O)N(C)[C@@H](CCCC)C(=O)N[C@@H](CCCN)C(=O)N[C@H](C(=O)NCC(N)=O)CSCC(=O)N[C@@H](Cc2ccc(O)cc2)C(=O)N2CCC[C@H]2C(=O)N[C@@H](CC(=O)O)C(=O)N2CCC[C@H]2C(=O)N[C@@H](CN)C(=O)N[C@@H](CCC(=O)O)C(=O)N2C[C@H](O)C[C@H]2C(=O)N[C@@H](Cc2c[nH]c3ccccc23)C(=O)N[C@@H](CCN)C(=O)N[C@@H](Cc2csc3ccccc23)C(=O)N1C` [Example 1193] ({CH2CO}-YPDP[Dap]E[Hyp]W[Dab][Bta][NMeNle][NMeNle][Orn]CG-NH2; thioether N-14): the IC50 lay within 0.385 to 6.74 nM at Human PD-L1/PD-1 and 0.158 to 4.71 nM in assay [1].

As to `CCCC[C@H]1C(=O)N(C)[C@@H](CCCC)C(=O)N[C@@H](CCCN)C(=O)N[C@H](C(=O)NCC(N)=O)CSCC(=O)N[C@@H](Cc2ccc(O)cc2)C(=O)N(C)[C@@H](C)C(=O)N[C@@H](CC(N)=O)C(=O)N2CCC[C@H]2C(=O)N[C@@H](CN)C(=O)N[C@@H](CC(C)C)C(=O)N2C[C@H](O)C[C@H]2C(=O)N[C@@H](Cc2c[nH]c3ccccc23)C(=O)N[C@@H](CCN)C(=O)N[C@@H](Cc2csc3ccccc23)C(=O)N1C` [Example 1194] ({CH2CO}-Y[NMeA]NP[Dap]L[Hyp]W[Dab][Bta][NMeNle][NMeNle][Orn]CG-NH2; thioether N-14), the IC50 on Human PD-L1/PD-1 was in the range of 0.385 to 6.74 nM; in assay [1], 0.158 to 4.71 nM.

As for `CCCC[C@H]1C(=O)N(C)[C@@H](CCCC)C(=O)N[C@@H](CCCN)C(=O)N[C@H](C(=O)NCC(N)=O)CSCC(=O)N[C@@H](Cc2ccc(O)cc2)C(=O)N(C)[C@@H](C)C(=O)N[C@@H](CC(N)=O)C(=O)N2CCC[C@H]2C(=O)N[C@@H](CN)C(=O)N[C@@H](CCC(N)=O)C(=O)N2C[C@H](O)C[C@H]2C(=O)N[C@@H](Cc2c[nH]c3ccccc23)C(=O)N[C@@H](CCN)C(=O)N[C@@H](Cc2csc3ccccc23)C(=O)N1C` [Example 1195] ({CH2CO}-Y[NMeA]NP[Dap]Q[Hyp]W[Dab][Bta][NMeNle][NMeNle][Orn]CG-NH2; thioether N-14), the IC50 at Human PD-L1/PD-1 lay within 0.385 to 6.74 nM; in assay [1], 0.158 to 4.71 nM.

Regarding `CCCC[C@H]1C(=O)N(C)[C@@H](CCCC)C(=O)N[C@@H](CCCNC(=N)N)C(=O)N[C@H](C(=O)NCC(N)=O)CSCC(=O)N[C@@H](Cc2ccccc2)C(=O)N(C)[C@@H](C)C(=O)N[C@@H](CC(N)=O)C(=O)N2CCC[C@H]2C(=O)N[C@@H](Cc2cnc[nH]2)C(=O)N[C@@H](CC(C)C)C(=O)N2CCCC[C@H]2C(=O)N[C@@H](Cc2c[nH]c3ccccc23)C(=O)N[C@@H](CO)C(=O)N[C@@H](Cc2c[nH]c3ccccc23)C(=O)N1C` [Example 1196] ({CH2CO}-F[NMeA]NPHL[Pip]WSW[NMeNle][NMeNle]RCG-NH2; thioether N-14), the IC50 at Human PD-L1/PD-1 is > 30.5 nM; in assay [1] it was 4.78 to 72.9 nM.

Take `CCCC[C@H]1C(=O)N(C)[C@@H](CCCC)C(=O)N[C@@H](CCCNC(=N)N)C(=O)N[C@H](C(=O)NCC(N)=O)CSCC(=O)N[C@@H](Cc2ccccc2)C(=O)N(C)[C@@H](C)C(=O)N[C@@H](CC(N)=O)C(=O)N2CCC[C@H]2C(=O)N[C@@H](Cc2cnc[nH]2)C(=O)N[C@@H](CC(C)C)C(=O)N2CC(F)(F)C[C@H]2C(=O)N[C@@H](Cc2c[nH]c3ccccc23)C(=O)N[C@@H](CO)C(=O)N[C@@H](Cc2c[nH]c3ccccc23)C(=O)N1C` [Example 1197] ({CH2CO}-F[NMeA]NPHL[Pro(4,4-F2)]WSW[NMeNle][NMeNle]RCG-NH2; thioether N-14): the IC50 was 6.76 to 30.3 nM at Human PD-L1/PD-1 and 4.78 to 72.9 nM in assay [1].

In the case of `CCCC[C@H]1C(=O)N(C)[C@@H](CCCC)C(=O)N[C@@H](CC(=O)O)C(=O)N[C@H](C(=O)NCC(N)=O)CSCC(=O)N[C@@H](Cc2ccc(O)cc2)C(=O)N(C)[C@@H](C)C(=O)N[C@@H](CC(=O)O)C(=O)N2CCC[C@H]2C(=O)N[C@@H](Cc2c[nH]cn2)C(=O)N[C@@H](CCCNC(=N)N)C(=O)N2CCCC2C(=O)N[C@@H](Cc2c[nH]c3ccccc23)C(=O)N[C@@H](CCCNC(=N)N)C(=O)N[C@@H](Cc2c[nH]c3ccccc23)C(=O)N1C` (stereo partly shown) [Example 1201] ({CH2CO}-Y[NMeA]DPHR[ξP]WRW[NMeNle][NMeNle]DCG-NH2; thioether N-14), the IC50 lay within 6.76 to 30.3 nM at Human PD-L1/PD-1 and 4.78 to 72.9 nM in assay [1].

With `CCCC[C@H]1C(=O)N(C)[C@@H](CCCC)C(=O)N[C@@H](C)C(=O)N[C@H](C(=O)NCC(N)=O)CSCC(=O)N[C@@H](Cc2ccc(O)cc2)C(=O)N(C)[C@@H](C)C(=O)N[C@@H](CC(=O)O)C(=O)N2CCC[C@H]2C(=O)N[C@@H](Cc2c[nH]cn2)C(=O)N[C@@H](CCCCN)C(=O)N2C[C@H](O)CC2C(=O)N[C@@H](Cc2c[nH]c3ccccc23)C(=O)N[C@@H](CO)C(=O)N[C@@H](Cc2c[nH]c3ccccc23)C(=O)N1C` (stereo partly drawn) [Example 1202] ({CH2CO}-Y[NMeA]DPHK[ξPro(4R-OH)]WSW[NMeNle][NMeNle]ACG-NH2; thioether N-14), the IC50 is 0.385 to 6.74 nM at Human PD-L1/PD-1 and 0.158 to 4.71 nM in assay [1].

`CCCC[C@H]1C(=O)N(C)[C@@H](CCCC)C(=O)N[C@@H](CC(=O)O)C(=O)N[C@H](C(=O)NCC(N)=O)CSCC(=O)N[C@@H](Cc2ccc(O)cc2)C(=O)N(C)[C@@H](C)C(=O)N[C@@H](CC(=O)O)C(=O)N2CCC[C@H]2C(=O)N[C@@H](Cc2c[nH]cn2)C(=O)N[C@@H](CCCNC(=N)N)C(=O)N2C[C@H](O)CC2C(=O)N[C@@H](Cc2c[nH]c3ccccc23)C(=O)N[C@@H](CCCNC(=N)N)C(=O)N[C@@H](Cc2c[nH]c3ccccc23)C(=O)N1C` (stereo partly drawn) [Example 1203] ({CH2CO}-Y[NMeA]DPHR[ξPro(4R-OH)]WRW[NMeNle][NMeNle]DCG-NH2; thioether N-14): the IC50 on Human PD-L1/PD-1 was 6.76 to 30.3 nM; in assay [1] it was 0.158 to 4.71 nM.

Regarding `CCCC[C@@H]1C(=O)N(C)[C@H](CCCC)C(=O)N[C@@H](C)C(=O)N[C@@H](C(=O)NCC(N)=O)CSCC(=O)N[C@@H](Cc2ccc(O)cc2)C(=O)N2CCCC2C(=O)N[C@H](CC(=O)O)C(=O)N2CCC[C@H]2C(=O)N[C@H](CN)C(=O)N[C@@H](CCC(N)=O)C(=O)N2CCCC2C(=O)N[C@H](Cc2c[nH]c3ccccc23)C(=O)N[C@@H](CCN)C(=O)N[C@@H](Cc2c[nH]c3ccccc23)C(=O)N1C` (stereo partly shown) [Example 1208] ({CH2CO}-Y[ξP][dD]P[dDap]Q[ξP][dW][Dab]W[dNMeNle][dNMeNle]A[dC]G-NH2; thioether N-14), the figures for the IC50 (at Human PD-L1/PD-1; in assay [1]) were 0.385 to 6.74 nM and 4.78 to 72.9 nM, respectively.

As to `CCCC[C@@H]1C(=O)N(C)[C@H](CCCC)C(=O)N[C@@H](C)C(=O)N[C@@H](C(=O)NCC(N)=O)CSCC(=O)N[C@@H](Cc2ccc(O)cc2)C(=O)N2CCCC2C(=O)N[C@H](CC(=O)O)C(=O)N2CCC[C@H]2C(=O)N[C@H](CN)C(=O)N[C@@H](CCC(=O)O)C(=O)N2CCCC2C(=O)N[C@H](Cc2c[nH]c3ccccc23)C(=O)N[C@@H](CCN)C(=O)N[C@@H](Cc2c[nH]c3ccccc23)C(=O)N1C` (stereo partly shown) [Example 1209] ({CH2CO}-Y[ξP][dD]P[dDap]E[ξP][dW][Dab]W[dNMeNle][dNMeNle]A[dC]G-NH2; thioether N-14), the results for the IC50 (at Human PD-L1/PD-1; in assay [1]) were 6.76 to 30.3 nM and 4.78 to 72.9 nM, respectively.

As for `CCCC[C@@H]1C(=O)N(C)[C@H](CCCC)C(=O)N[C@@H](C)C(=O)N[C@@H](C(=O)NCC(N)=O)CSCC(=O)N[C@@H](Cc2ccc(O)cc2)C(=O)N2CCCC2C(=O)N[C@H](CC(N)=O)C(=O)N2CCC[C@H]2C(=O)N[C@H](CN)C(=O)N[C@@H](CCC(N)=O)C(=O)N2CCCC2C(=O)N[C@H](Cc2c[nH]c3ccccc23)C(=O)N[C@@H](CCN)C(=O)N[C@@H](Cc2c[nH]c3ccccc23)C(=O)N1C` (stereo partly shown) [Example 1211] ({CH2CO}-Y[ξP][dN]P[dDap]Q[ξP][dW][Dab]W[dNMeNle][dNMeNle]A[dC]G-NH2; thioether N-14), the figures for the IC50 (at Human PD-L1/PD-1; in assay [1]) were 6.76 to 30.3 nM and > 74.3 nM, respectively.
